Laboratory results as given in patent US20090311246A1, “Method of Enhancing Remyelination in Demyelinating Diseases of the Central Nervous System” (priority 2008, published 2009).
“Also recorded” adds a separate entry of the source.

Key:
[1] = tested on: SFV-infected WT and γδ KO mice; assay: E2 137-151 peptide immunization during SFV disease: histopathology, remyelination in one micron brain sections; assay type: in vivo; settings: for Remyelination in KO mice: peptide-immunized SFV-infected γδ KO mice, day 28 pi
Source text: FIG. 4 Remyelination in E2 137-151 immunized, SFV-infected WT and γδ-KO B6 mice. All figures come from one micron epoxy sections taken from brain tissues, fixed in 2.5% glutaraldehyde/1% osmium tetroxide, embedded in epoxy resin, stained with toluidine blue and photographed by light microscopy.
(§1) In order to be able to detect the de- and remyelination accurately, at the end of the experiment, mice will be sacrificed by an overdose of sodium pentobarbital and perfused by intracardiac puncture with Trumps fixative, containing 4% paraformaldehyde and 1% glutaraldehyde. Brains and spinal cords are removed and post fixed in osmium textroxide. Each brain is sectioned coronally into three pieces by cuts through infandibulum and optic chiasm. Spinal cord tissues will be also harvested and processed. Every third block (10-12 blocks per spinal cord, cervical to lumbar range) will be embedded, along with brain sections, in Araldite plastic. The embedded tissues will be cross-sectioned at 1 μm thickness, and the slides stained with toluidine blue or 4% paraphenylenediamine to highlight the myelin sheets. We have studied the one-micron thin sections of the brains of SFV-infected WT and KO on days of 21-42 postinfection.
as §1, with “[…] These lesions were impossible to quantitate due to very small sizes of nerve fibers. Consequently we plan to study” for “The embedded tissues will be cross-sectioned at 1 μm thickness, and”, “cross” for “slides stained with toluidine blue or 4% paraphenylenediamine to highlight the myelin sheets. We have studied the one-micron thin”, “spinal cords to quantitate these lesins, as has been previously reported (71). […]” for “the brains of SFV-infected WT and KO on days of 21-42 postinfection.”

[2] = tested on: Normal Rabbit Serum; assay: Indirect ELISA of normal rabbit serum/IgG against viral and myelin antigens; assay type: binding; settings: 10^−2 diluted
[3] = tested on: B6 mice; settings: unpublished data
[4] = tested on: SFV-infected WT and γδ KO mice; assay: E2 137-151 peptide immunization during SFV disease: serum antibody response (ELISA); assay type: in vivo
Source text: Optical densities (OD) (3A) and ratios (3B) of Non-immunized/Immunized, WT and KO, of ELISA responses to SFV and to E2 peptide, 137-151 is shown. Samples were collected on days 15, 21, 28 and 35 after intraperitoneal infection of B6 mice with SFV and immunization with E2 137-151. The dilutions for sera were 1:80, Amount of antibody is shown as mean optical density (OD) of sera from three experiments±standard error of the mean (SEM). The background OD is subtracted from each time point.
To measure the antibody response of both WT and γδ KO mice against SFV and two of the peptides of the SFV envelope protein, E2, an indirect ELISA was performed. Sera were pooled from 4-6 SFV-infected WT, and 3 KO, mice on days 0, 7, 14, 21 and 35 pi. Briefly, Immunolon 2HB 96 well microtiter plates (VWR, Bridge Port, N.J.) were coated with 1 μg/well of each antigen in 100 μl/well carbonate buffer overnight at room temperature. After washing, the plates were blocked and serum samples were added. […] After washing, biotinylated goat anti-mouse Igs (BD Pharmingen, Torreyana, Calif.), Strepavidin conjugated to Horse Radish Peroxidase (Vector Laboratories, Burlingame, Calif.), and OPD substrate (Sigma, St. Louis, Mo.) were used, as previously described (4, 9). […] Values were considered to be positive when they were >0.3 OD units and exceeded the mean value plus three standard deviations for antibody response on day 0 pi of mice of the same strain.
WT and KO mice were immunized subcutaneously with E2 137-151 (0.5 mg/injection or 25 mg/kg, based on the average weight of 20 g/mouse) in IFA on the day of SFV-infection. Additional injections of E2 137/IFA were performed on days 5 and 15 for WT and KO mice. Mice are sacrificed on days 15, 21, 35 and 42 pi and sera were tested by ELISA for reactivity with SFV and its peptides. […] This immunization, however, appeared to have suppressed the formation of anti-E2 137-151 antibody in SFV-infected, E2 137-151-immunized WT mice.

Structure (SMILES): CC[C@H](C)[C@H](NC(=O)[C@H](CCC(=O)O)NC(=O)[C@H](CCCCN)NC(=O)CNC(=O)[C@H](Cc1ccc(O)cc1)NC(=O)[C@H](Cc1c[nH]cn1)NC(=O)[C@@H]1CCCN1C(=O)[C@H](CCCNC(=N)N)NC(=O)[C@@H](NC(=O)[C@@H](NC(=O)[C@H](Cc1ccccc1)NC(=O)[C@H](CCCCN)NC(=O)[C@H](CCC(=O)O)NC(=O)[C@H](CCCNC(=N)N)NC(=O)CN)[C@@H](C)O)[C@@H](C)CC)C(=O)O [E2 137-151]
- Remyelination in WT mice ([1]; peptide-immunized SFV-infected WT mice): normal remyelination
- Remyelination in KO mice [1]: advanced remyelination
- Remyelination in KO mice ([1]; listed as E2 137-151 peptide): early remyelination; also recorded: promoted remyelination
- Normal Rabbit Serum, OD at 490 nm [2]: 0.173 OD
- Histopathology after inoculation with the peptide [3]: did not cause histopathology
- Formation of anti-E2 137-151 antibody in SFV-infected, immunized WT mice ([4]; 0.5 mg/injection sc in IFA, WT mice): suppressed
- Ratio of antibody production to SFV, immunized versus non-immunized ([4]; KO and WT mice): did not increase
- Antibody to E2 137-151 peptide after immunization ([4]; SFV-infected KO mice): increased the antibody to this peptide only
- Ratio of KO/WT anti E2 137-151 antibody production ([4]; immunized versus non-immunized): significantly increased
